# What was measured:
# Acetylcholinesterase [1] = biological target: T1, Acetylcholinesterase (Homo sapiens, UniProt P22303); assay type: functional
# [2] = biological target: T2, 5-hydroxytryptamine receptor 2B (Homo sapiens, UniProt P41595); assay type: functional, cell-based
# D(1A) dopamine receptor = D(1A) dopamine receptor (Homo sapiens, UniProt P21728); assay type: functional, cell-based
# Mu-type opioid receptor [3] = biological target: T3, Mu-type opioid receptor (Homo sapiens, UniProt P35372)
# [4] = biological target: T2, 5-hydroxytryptamine receptor 2B; assay type: functional, cell-based; remark: listed apart in the source
# [5] = biological target: T4, Gamma-aminobutyric acid receptor subunit alpha-1 (Rattus norvegicus, UniProt P62813)
# [6] = biological target: Neuronal acetylcholine receptor subunit alpha-4 (Homo sapiens, UniProt P43681)
# Mu-type opioid receptor [7] = biological target: T3, Mu-type opioid receptor; assay: biochemical; assay type: functional
# [8] = biological target: Glutamate receptor ionotropic, NMDA 1 (Rattus norvegicus, UniProt P35439)
# Cannabinoid receptor 1 = Cannabinoid receptor 1 (Homo sapiens, UniProt P21554)
# [9] = biological target: Kappa-type opioid receptor (Homo sapiens, UniProt P41145)
# D(3) dopamine receptor = D(3) dopamine receptor (Homo sapiens, UniProt P35462)
# [10] = biological target: T4, Gamma-aminobutyric acid receptor subunit alpha-1; assay type: functional
# [11] = biological target: Sodium-dependent noradrenaline transporter (Homo sapiens, UniProt P23975)
# Acetylcholinesterase [12] = biological target: T1, Acetylcholinesterase; assay type: functional; remark: listed apart in the source
# Bile salt export pump = Bile salt export pump (Homo sapiens, UniProt O95342); assay type: functional
# [13] = biological target: Voltage-gated inwardly rectifying potassium channel KCNH2 (Homo sapiens, UniProt Q12809); assay type: functional; conditions: read-out: AC50
# [14] = biological target: T5, Alpha-2C adrenergic receptor (Homo sapiens, UniProt P18825); assay type: functional
# T5 sequence (P18825 whole entry): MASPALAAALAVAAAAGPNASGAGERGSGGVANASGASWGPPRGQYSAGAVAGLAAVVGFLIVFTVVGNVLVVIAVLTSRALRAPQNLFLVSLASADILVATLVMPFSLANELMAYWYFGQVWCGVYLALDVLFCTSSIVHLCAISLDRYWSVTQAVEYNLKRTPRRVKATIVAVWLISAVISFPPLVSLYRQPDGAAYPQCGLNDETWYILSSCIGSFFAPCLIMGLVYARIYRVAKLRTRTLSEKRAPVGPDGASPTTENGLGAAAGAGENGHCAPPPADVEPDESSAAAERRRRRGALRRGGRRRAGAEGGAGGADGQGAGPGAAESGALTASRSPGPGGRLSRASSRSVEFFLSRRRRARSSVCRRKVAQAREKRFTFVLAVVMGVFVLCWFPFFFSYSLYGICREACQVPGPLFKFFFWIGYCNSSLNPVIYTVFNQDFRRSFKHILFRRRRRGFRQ
# [15] = biological target: 5-hydroxytryptamine receptor 2A (Homo sapiens, UniProt P28223); assay type: functional, cell-based
# [16] = biological target: T6, Muscarinic acetylcholine receptor M4 (Homo sapiens, UniProt P08173)
# T6 sequence (P08173 whole entry): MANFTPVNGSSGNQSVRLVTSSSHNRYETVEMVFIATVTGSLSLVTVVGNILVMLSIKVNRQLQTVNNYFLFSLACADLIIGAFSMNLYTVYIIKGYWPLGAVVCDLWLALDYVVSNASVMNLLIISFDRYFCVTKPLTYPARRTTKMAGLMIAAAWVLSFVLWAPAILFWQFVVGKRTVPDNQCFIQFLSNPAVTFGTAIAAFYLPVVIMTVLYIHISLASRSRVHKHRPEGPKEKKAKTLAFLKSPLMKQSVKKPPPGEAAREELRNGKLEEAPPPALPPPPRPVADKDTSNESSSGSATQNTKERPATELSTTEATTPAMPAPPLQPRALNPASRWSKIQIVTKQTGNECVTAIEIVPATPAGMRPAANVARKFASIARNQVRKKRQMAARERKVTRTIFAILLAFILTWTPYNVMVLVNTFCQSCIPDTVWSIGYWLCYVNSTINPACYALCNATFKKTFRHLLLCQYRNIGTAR
# [17] = biological target: T7, Muscarinic acetylcholine receptor M5 (Homo sapiens, UniProt P08912)
# T7 sequence (P08912 whole entry): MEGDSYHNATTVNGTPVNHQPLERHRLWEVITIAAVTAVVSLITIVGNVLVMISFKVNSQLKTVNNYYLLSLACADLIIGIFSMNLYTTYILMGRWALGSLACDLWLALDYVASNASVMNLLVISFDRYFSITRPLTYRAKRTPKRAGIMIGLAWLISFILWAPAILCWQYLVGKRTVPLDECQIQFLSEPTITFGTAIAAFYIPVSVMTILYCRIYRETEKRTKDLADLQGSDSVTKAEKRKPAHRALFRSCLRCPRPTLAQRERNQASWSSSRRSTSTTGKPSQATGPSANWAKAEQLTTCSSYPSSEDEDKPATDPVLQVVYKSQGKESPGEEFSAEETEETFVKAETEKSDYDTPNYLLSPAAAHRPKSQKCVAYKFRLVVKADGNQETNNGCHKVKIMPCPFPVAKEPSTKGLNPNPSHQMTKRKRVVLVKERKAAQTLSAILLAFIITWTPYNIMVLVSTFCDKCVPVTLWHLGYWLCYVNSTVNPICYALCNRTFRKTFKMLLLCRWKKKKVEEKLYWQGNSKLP
# Further: assay procedure not described here.
# T1 sequence (P22303 whole entry): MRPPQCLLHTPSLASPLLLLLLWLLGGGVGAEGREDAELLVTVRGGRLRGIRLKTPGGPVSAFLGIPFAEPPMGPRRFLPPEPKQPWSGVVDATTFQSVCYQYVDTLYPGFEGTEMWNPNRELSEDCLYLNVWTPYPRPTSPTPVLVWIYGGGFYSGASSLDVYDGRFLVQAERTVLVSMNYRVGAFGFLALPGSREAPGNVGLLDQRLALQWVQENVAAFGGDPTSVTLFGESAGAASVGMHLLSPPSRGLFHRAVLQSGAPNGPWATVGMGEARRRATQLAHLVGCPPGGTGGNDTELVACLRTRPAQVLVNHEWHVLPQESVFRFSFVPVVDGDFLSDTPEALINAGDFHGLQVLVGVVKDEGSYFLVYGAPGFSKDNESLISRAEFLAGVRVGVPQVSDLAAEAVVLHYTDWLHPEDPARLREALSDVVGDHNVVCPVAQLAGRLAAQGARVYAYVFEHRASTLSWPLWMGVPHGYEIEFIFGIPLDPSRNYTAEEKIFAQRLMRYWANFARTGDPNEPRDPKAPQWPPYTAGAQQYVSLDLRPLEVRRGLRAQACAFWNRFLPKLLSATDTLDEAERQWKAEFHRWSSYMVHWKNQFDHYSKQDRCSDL
# T2 sequence (P41595 whole entry): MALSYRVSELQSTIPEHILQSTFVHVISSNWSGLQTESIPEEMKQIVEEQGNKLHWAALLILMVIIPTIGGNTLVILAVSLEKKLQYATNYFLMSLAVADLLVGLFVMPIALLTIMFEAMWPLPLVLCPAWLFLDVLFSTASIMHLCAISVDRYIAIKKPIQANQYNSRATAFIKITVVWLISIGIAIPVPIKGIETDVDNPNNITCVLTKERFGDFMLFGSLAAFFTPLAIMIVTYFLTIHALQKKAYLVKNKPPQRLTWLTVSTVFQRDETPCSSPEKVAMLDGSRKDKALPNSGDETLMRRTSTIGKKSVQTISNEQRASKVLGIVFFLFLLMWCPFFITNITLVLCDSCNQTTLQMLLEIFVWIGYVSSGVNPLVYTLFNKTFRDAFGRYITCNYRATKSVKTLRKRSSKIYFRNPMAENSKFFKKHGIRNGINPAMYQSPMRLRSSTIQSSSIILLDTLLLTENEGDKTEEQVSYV
# T3 sequence (P35372 whole entry): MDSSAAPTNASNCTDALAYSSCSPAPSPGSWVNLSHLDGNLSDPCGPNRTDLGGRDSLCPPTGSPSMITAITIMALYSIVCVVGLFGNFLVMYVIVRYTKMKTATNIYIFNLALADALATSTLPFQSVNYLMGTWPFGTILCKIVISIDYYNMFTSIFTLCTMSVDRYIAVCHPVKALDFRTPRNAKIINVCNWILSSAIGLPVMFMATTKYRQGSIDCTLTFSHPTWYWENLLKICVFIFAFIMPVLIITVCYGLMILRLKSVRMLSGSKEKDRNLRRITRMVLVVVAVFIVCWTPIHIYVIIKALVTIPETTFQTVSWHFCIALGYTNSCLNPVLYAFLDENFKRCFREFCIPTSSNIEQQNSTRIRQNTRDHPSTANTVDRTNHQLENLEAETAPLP
# T4 sequence (P62813 whole entry): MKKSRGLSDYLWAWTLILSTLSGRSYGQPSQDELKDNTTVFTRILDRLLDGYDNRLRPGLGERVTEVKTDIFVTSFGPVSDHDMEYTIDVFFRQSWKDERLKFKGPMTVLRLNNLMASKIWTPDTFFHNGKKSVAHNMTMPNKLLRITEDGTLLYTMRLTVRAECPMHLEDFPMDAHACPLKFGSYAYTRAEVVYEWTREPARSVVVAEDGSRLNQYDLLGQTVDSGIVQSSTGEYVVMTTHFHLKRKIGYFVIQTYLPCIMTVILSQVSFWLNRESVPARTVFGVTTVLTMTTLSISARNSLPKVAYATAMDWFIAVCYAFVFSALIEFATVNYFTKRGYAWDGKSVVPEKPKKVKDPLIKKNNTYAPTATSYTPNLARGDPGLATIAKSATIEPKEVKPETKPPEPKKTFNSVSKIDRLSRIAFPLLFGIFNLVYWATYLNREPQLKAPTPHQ
# Sequence of D(3) dopamine receptor (P35462 whole entry): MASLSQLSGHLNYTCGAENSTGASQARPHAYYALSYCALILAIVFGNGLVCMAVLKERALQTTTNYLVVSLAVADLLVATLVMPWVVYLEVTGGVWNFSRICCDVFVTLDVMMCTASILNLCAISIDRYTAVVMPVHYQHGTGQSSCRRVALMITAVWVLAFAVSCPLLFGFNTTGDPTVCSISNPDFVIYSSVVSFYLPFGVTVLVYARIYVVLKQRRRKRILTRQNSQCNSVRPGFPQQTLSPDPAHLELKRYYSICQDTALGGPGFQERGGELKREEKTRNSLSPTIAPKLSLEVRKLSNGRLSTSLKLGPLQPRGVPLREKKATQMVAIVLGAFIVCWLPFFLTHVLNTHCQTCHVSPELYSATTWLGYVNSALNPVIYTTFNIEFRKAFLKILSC
# Sequence of Kappa-type opioid receptor (P41145 whole entry): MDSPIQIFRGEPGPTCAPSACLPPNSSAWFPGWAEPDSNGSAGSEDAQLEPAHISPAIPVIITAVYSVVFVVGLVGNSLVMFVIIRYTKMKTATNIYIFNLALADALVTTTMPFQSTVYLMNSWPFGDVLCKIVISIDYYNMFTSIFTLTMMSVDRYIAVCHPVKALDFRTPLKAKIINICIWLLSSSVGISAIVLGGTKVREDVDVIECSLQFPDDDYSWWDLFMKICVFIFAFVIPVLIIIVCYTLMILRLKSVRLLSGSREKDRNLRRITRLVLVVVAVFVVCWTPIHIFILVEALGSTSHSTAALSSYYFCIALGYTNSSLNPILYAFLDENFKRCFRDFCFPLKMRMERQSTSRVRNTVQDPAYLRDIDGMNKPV
# Sequence of Bile salt export pump (O95342 whole entry): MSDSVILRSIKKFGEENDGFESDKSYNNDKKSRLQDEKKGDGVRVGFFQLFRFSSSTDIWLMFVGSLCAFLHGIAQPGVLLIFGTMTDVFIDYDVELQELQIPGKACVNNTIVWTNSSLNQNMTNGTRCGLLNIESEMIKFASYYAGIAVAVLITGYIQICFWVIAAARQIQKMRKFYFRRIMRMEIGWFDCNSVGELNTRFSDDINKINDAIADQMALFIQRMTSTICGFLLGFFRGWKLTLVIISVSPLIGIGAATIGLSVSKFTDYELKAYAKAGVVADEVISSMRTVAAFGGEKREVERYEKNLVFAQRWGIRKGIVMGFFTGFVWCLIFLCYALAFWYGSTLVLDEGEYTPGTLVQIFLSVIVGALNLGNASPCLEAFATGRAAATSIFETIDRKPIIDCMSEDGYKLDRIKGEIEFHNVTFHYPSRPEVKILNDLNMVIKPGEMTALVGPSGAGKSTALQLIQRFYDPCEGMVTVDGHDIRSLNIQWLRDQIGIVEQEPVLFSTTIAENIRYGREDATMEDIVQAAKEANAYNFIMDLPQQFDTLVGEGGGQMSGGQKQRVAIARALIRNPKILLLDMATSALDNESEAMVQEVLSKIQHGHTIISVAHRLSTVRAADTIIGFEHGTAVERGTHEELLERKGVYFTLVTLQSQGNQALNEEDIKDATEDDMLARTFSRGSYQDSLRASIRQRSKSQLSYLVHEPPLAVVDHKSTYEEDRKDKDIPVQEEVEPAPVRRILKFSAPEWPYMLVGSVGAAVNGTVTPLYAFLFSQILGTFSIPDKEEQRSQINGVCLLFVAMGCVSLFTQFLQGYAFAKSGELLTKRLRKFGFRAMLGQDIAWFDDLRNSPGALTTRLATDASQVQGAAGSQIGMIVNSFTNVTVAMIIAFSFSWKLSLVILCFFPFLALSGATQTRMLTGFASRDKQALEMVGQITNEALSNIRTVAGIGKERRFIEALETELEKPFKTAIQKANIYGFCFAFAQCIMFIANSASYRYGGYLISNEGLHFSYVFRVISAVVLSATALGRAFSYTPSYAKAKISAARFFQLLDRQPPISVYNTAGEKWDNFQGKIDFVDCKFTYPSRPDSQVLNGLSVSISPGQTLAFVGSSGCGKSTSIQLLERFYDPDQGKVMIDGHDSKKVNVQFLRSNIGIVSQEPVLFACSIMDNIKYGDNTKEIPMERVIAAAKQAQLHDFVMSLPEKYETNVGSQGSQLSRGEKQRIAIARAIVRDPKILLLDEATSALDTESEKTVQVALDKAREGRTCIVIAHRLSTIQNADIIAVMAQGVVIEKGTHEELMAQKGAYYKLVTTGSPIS
# Sequence of Neuronal acetylcholine receptor subunit alpha-4 (P43681 whole entry): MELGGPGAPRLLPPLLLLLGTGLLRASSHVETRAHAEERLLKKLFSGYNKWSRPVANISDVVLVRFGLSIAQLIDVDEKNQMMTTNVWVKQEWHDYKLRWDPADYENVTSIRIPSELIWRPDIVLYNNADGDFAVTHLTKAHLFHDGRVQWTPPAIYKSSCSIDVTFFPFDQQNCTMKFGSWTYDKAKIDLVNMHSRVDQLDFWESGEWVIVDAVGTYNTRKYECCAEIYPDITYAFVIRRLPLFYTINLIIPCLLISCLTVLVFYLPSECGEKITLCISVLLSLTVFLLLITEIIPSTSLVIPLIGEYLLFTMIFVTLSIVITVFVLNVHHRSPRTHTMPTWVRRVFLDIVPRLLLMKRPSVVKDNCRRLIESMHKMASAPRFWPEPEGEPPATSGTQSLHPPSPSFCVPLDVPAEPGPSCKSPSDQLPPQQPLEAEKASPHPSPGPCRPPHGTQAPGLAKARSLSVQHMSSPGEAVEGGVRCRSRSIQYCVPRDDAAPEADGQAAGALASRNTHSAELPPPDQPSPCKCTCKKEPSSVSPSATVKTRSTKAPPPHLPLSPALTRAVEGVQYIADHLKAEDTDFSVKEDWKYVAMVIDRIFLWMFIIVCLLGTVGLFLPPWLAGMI
smiles,measurement,setting,value
CCN(CC)C(=S)SSC(=S)N(CC)CC,AC50,Acetylcholinesterase [1],14.2 µM
CCCC(=O)Nc1ncnc2c1ncn2[C@@H]1O[C@@H]2COP(=O)(O)O[C@H]2[C@H]1OC(=O)CCC [BUCLADESINE],AC50,Acetylcholinesterase [1],> 30 µM
O=C1CC2(CCCC2)CC(=O)N1CCCCN1CCN(c2ncccn2)CC1 [BUSPIRONE],AC50,[2],7.37 µM
same,AC50,D(1A) dopamine receptor,> 10 µM
same,AC50,Mu-type opioid receptor [3],> 30 µM
same,AC50,[4],> 10 µM
same,AC50,[5],> 10 µM
same,AC50,[6],> 10 µM
same,AC50,Mu-type opioid receptor [7],> 30 µM
same,AC50,[8],> 10 µM
same,AC50,Cannabinoid receptor 1,17.5 µM
same,AC50,[9],> 10 µM
same,AC50,D(3) dopamine receptor,0.048 µM
same,AC50,[10],> 10 µM
same,AC50,[11],> 30 µM
NC(=O)OC[C@@H]1[C@H](NC(=O)/C(=N\OCC(=O)O)c2csc(N)n2)C(=O)N1S(=O)(=O)O [CARUMONAM],AC50,Acetylcholinesterase [12],> 500 µM
CC/C(=C(/CC)c1ccc(O)cc1)c1ccc(O)cc1 [DIETHYLSTILBESTROL],AC50,Acetylcholinesterase [1],> 30 µM
Nc1cccc2c1CN(C1CCC(=O)NC1=O)C2=O (configuration not stated) [LENALIDOMIDE],AC50,Bile salt export pump,> 300 µM
NCCCC[C@H](N[C@@H](CCc1ccccc1)C(=O)O)C(=O)N1CCC[C@H]1C(=O)O [LISINOPRIL ANHYDROUS],AC50,Acetylcholinesterase [1],> 30 µM
C[N+]1(C)[C@@H]2CC[C@H]1C[C@@H](OC(=O)C(O)c1ccccc1)C2 (some centres not stated) [METHYLHOMATROPINE],AC50,[13],> 30 µM
CN1CCN2c3ccccc3Cc3ccccc3C2C1 (configuration not stated) [MIANSERIN],AC50,[14],0.05 µM
same,AC50,Acetylcholinesterase [1],> 30 µM
CC(=O)[C@H]1CC[C@H]2[C@@H]3CCC4=CC(=O)CC[C@]4(C)[C@H]3CC[C@]12C [PROGESTERONE],AC50,Acetylcholinesterase [1],> 30 µM
CCN(c1cc(-c2ccc(CN3CCOCC3)cc2)cc(C(=O)NCc2c(C)cc(C)[nH]c2=O)c1C)C1CCOCC1 [TAZEMETOSTAT],AC50,[15],> 30 µM
same,AC50,Acetylcholinesterase [12],> 30 µM
C[N+]1(C)[C@@H]2C[C@@H](OC(=O)C(O)(c3cccs3)c3cccs3)C[C@H]1[C@@H]1O[C@@H]12 [TIOTROPIUM BROMIDE],AC50,[16],0.0003 µM
same,AC50,[17],0.0015 µM
